Key:
Assay type in all cases: in vivo
[1] = test system: Myzus persicae; test: Myzus persicae leaf dip test (capsicum leaves, third instar nymphs); conditions: foliar, 72 h after release, dead and moribund combined, compared to untreated control, read-out: percent mortality
[2] = test system: Bemisia tabaci; test: Bemisia tabaci leaf dip test (brinjal leaves, whitefly adults); conditions: foliar, 72 h after release, dead and moribund combined, compared to untreated control, read-out: percent mortality
Experimental: The leaf dip method was used for testing, wherein the required quantity of the compound was weighed and dissolved in a tube containing a solvent solution. The tube was put on a vortex at 2000 rpm for 90 min for proper mixing and then the mixture was diluted with a 0.01% Triton-X solution to the desired test concentration. Brinjal leaves were dipped in the compound solution for 10 seconds, shade dried for 20 min and then placed, with the abaxial side of the leaf up, on 4 ml of a 1% agar-agar solution in respective container caps. Known numbers of freshly emerged whitefly adults were collected, using a modified aspirator, and released into a perforated container in which the cap containing the treated leaf was placed. The containers were kept in a plant growth chamber at a temperature of 25° C. and a relative humidity of 70%. Observations on dead, moribund and alive adults were recorded 72 h after the release. Percent mortality was calculated by combining dead and moribund adults and comparing the result to the one of the untreated control. The compounds 32 53 58 79 80 81 82 84 87 88 89 94 95 96 101 102 103 104 105 106 107 108 109 112 113 114 115 116 117 118 119 120 123 124 125 126 127 130 135 138 139 140 144 145 147 150 154 156 158 159 164 167 168 169 170 171 188 189 191 198 199 200 201 202 206 207 208 209 210 213 216 223 224 225 227 228 231 232 233 234 235 236 238 242 243 244 246 and 247 recorded≥70 percent mortality @ 300 PPM.

[3] = test system: Nilaparvata lugens; test: Nilaparvata lugens seedling dip test (paddy seedlings, third instar nymphs); conditions: 72 h after release, dead and moribund combined, compared to untreated control, read-out: percent mortality

Measured: mortality at 300 ppm

O=c1nc2n(Cc3cnc(Cl)nc3)cccc-2c(=O)n1-c1ccc(F)c(F)c1 [Compound 120, 8-((2-chloropyrimidin-5-yl)methyl)-3-(3,4-difluorophenyl)pyrido[2,3-d]pyrimidine-2,4(3H,8H)-dione]
≥ 70%: all assays above

O=c1nc2n(Cc3ccc(Cl)nc3)cccc-2c(=O)n1-c1cccc(OC(F)(F)F)c1 [Compound 123, 8-((6-chloropyridin-3-yl)methyl)-3-(3-(trifluoromethoxy)phenyl)pyrido[2,3-d]pyrimidine-2,4(3H,8H)-dione]
≥ 70%: all assays above

O=c1nc2n(Cc3cnc(Cl)nc3)cccc-2c(=O)n1-c1cc(F)cc(F)c1 [Compound 140, 8-((2-chloropyrimidin-5-yl)methyl)-3-(3,5-difluorophenyl)pyrido[2,3-d]pyrimidine-2,4(3H,8H)-dione]
≥ 70%: all assays above

O=c1nc2n(Cc3cnc(Cl)s3)cccc-2c(=O)n1-c1cccc(OC(F)(F)F)c1 [Compound 150, 8-((2-chlorothiazol-5-yl)methyl)-3-(3-(trifluoromethoxy)phenyl)pyrido[2,3-d]pyrimidine-2,4(3H,8H)-dione]
≥ 70%: all assays above

O=c1nc2n(Cc3cnc(Cl)nc3)cccc-2c(=O)n1-c1ccc(F)c(Cl)c1 [Compound 154, 3-(3-chloro-4-fluorophenyl)-8-((2-chloropyrimidin-5-yl)methyl)pyrido[2,3-d]pyrimidine-2,4(3H,8H)-dione]
≥ 70%: all assays above

O=c1nc2n(Cc3cnc(Cl)nc3)cccc-2c(=O)n1-c1ccc(Br)cc1 [Compound 159, 3-(4-bromophenyl)-8-((2-chloropyrimidin-5-yl)methyl)pyrido[2,3-d]pyrimidine-2,4(3H,8H)-dione]
≥ 70%: all assays above

O=c1nc2n(Cc3cnc(Cl)nc3)cccc-2c(=O)n1-c1ccc2c(c1)OC(F)(F)O2 [Compound 198, 8-((2-chloropyrimidin-5-yl)methyl)-3-(2,2-difluorobenzo[d][1,3]dioxol-5-yl)pyrido[2,3-d]pyrimidine-2,4(3H,8H)-dione]
≥ 70%: all assays above

O=c1nc2n(Cc3ccc(Cl)nc3)cccc-2c(=O)n1-c1ccc2c(c1)OC(F)(F)O2 [Compound 199, 8-((6-chloropyridin-3-yl)methyl)-3-(2,2-difluorobenzo[d][1,3]dioxol-5-yl)pyrido[2,3-d]pyrimidine-2,4(3H,8H)-dione]
≥ 70%: all assays above

O=c1nc2n(Cc3cnc(Cl)nc3)cccc-2c(=O)n1-c1cc(Cl)cc(Cl)c1 [Compound 201, 8-((2-chloropyrimidin-5-yl)methyl)-3-(3,5-dichlorophenyl)pyrido[2,3-d]pyrimidine-2,4(3H,8H)-dione]
≥ 70%: all assays above

O=c1nc2n(Cc3cnc(Cl)nc3)cccc-2c(=O)n1-c1ccc(F)cc1F [Compound 207, 8-((2-chloropyrimidin-5-yl)methyl)-3-(2,4-difluorophenyl)pyrido[2,3-d]pyrimidine-2,4(3H,8H)-dione]
≥ 70%: all assays above

O=c1nc2n(Cc3cnc(Cl)nc3)cccc-2c(=O)n1-c1ccc(Cl)c(F)c1 [Compound 208, 3-(4-chloro-3-fluorophenyl)-8-((2-chloropyrimidin-5-yl)methyl)pyrido[2,3-d]pyrimidine-2,4(3H,8H)-dione]
≥ 70%: all assays above
